Test results reported in publication PMC5095173, “Disulfide-activated protein kinase G Iα regulates cardiac diastolic relaxation and fine-tunes the Frank–Starling response” (Nature Communications, 2016).
Where no end group is shown, it is not given here. [ ]: non-standard residue; d: D form. pT = C[C@@H](OP(=O)(O)O)[C@H](N)C(=O)O; Met(O) = CS(=O)CC[C@H](N)C(=O)O; pS = N[C@@H](COP(=O)(O)O)C(=O)O

What was measured:
PKGIα disulfide dimer = settings: HEK cells, murine aortic rings or mesenteric blood vessels; ref Burgoyne et al. Hypertension 60, 1301-1308 (2012); Rudyk et al. Circulation 126, 287-295 (2012); cited from earlier work
PLN threonine 17 = settings: cardiac myocytes exposed to hydrogen peroxide; no reference given; cited from earlier work
[1] = system: PKGIα (VASP phosphorylation) in mouse embryonic fibroblasts; settings: ref Muller et al. Free Radic Biol Med 53, 1574-1583 (2012); cited from earlier work
Description: This transgenic model was developed by the Sadoshima lab (Newark, USA) and the data are included in a PhD thesis (2015) by Daniel Stubbert from this lab. We have amended the manuscript so that it now states that the ...

[2] = system: PKGIα (analogue-sensitive C42S/M438G), cGMP-activated; test: Chemical genetic phosphoproteomic screen, cGMP-activated PKGIα C42S/M438G versus unactivated control; format: biochemical, human PKGIα; substrates in rat heart homogenate; settings: for Log2 fold change in phosphorylation, cGMP versus control: PKGIα C42S/M438G + 100 μM cGMP vs basal, 1 h, 30 °C, pH 7.5, rat heart homogenate, label-free LC–MS/MS, n=4, * P<0.05 Dunnett: all values except phospholamban S16; for log2 fold change cGMP vs Control: control = PKGIα C42S/M438G; for log2 fold changes: Group 1 (cGMP-activated) vs Group 3 (control)
Description: (§1) We employed a chemical genetic method[18] to identify direct substrates of cGMP-activated PKGIα and disulfide bond-activated PKGIα in heart tissue. This method involves mutation of the ATP binding-site of the kinase of interest so that it can accept a ‘bulky' N6-alkylated ATP analogue for example, N6^−phenylethyl ATP. An oxygen atom on the γ phosphate is also replaced with a sulfur atom—giving an N6-alkylated ATPγS analogue—so that the mutant kinase catalyses the transfer of a thiophosphate group (–PO3S^3−) to its substrates instead of a phosphate. The thiophosphate group is nucleophilic, providing a basis for substrates of the analogue-sensitive kinase to be purified by a ‘covalent capture' protocol. LC–MS/MS allows identification of the substrate and localization of the phosphorylation site. Thiophosphorylated proteins can also be detected with a thiophosphate ester-specific antibody. Analogue-sensitive mutants of PKGIα and PKGIα C42S (which cannot form the activating intermolecular disulfide bond) were generated by mutating Met438 in the ATP-binding domain to Gly. This mutation was chosen based on a previous study where an analogue-sensitive mutant of the catalytic subunit of PKA—which shares sequence homology with PKGIα—was engineered. Detailed protocols are given below.
(§2) A pCDNA3 expression vector encoding human FLAG-tagged PKGIα (ref. [41]) underwent site-directed mutagenesis to generate constructs for untagged WT, C42S, M438G and C42S/M438G PKGIα. Mutations were introduced using the QuikChange II Site-Directed Mutagenesis Kit (Agilent) according to the manufacturer's instructions. Expression and purification of the PKGIα mutants was performed according to a published method[42] as follows: suspension FreeStyle 293-F cells (ThermoFisher Scientific) were transfected with the appropriate PKGIα construct using the stable cationic polymer polyethyleneimine (PEI) as a transfection reagent. After ∼72 h cells were harvested by centrifugation (400g; room temperature; 15 min), re-suspended in ice cold lysis buffer (25 mM sodium phosphate buffer pH 6.8; 10 mM ethylenediaminetetraacetic acid (EDTA); 100 mM NaCl; 10 mM benzamidine hydrochloride; and 10 mM dithiothreitol (DTT)) and frozen in liquid N2. Cells were lysed by three freeze (liquid N2)-thaw (37 °C) cycles and the lysate was clarified by centrifugation at 140,000g and 4 °C for 30 min. The soluble protein fraction was loaded onto a pre-equilibrated 8-(2-aminoethylamino)adenosine-3′, 5′-cyclic monophosphate column (8-AEA-cAMP agarose; BioLog, Germany) followed by washing with 20 column volumes of lysis buffer. The column was further washed with lysis buffer +3 M NaCl (5 column volumes) and PKGIα was then eluted with lysis buffer +150 mM NaCl and 500 μM cAMP. Removal of cAMP and buffer exchange was achieved by extensive dialysis against 25 mM sodium phosphate buffer pH 6.8, 2 mM EDTA and 100 mM NaCl. For ITC analysis, WT PKGIα was incubated with 10 mM lipoic acid for 2 h on ice to obtain ∼100% disulfide dimer (confirmed by SDS-PAGE). Oxidized WT or C42S PKGIα was further purified by size exclusion chromatography using a HiLoad 16/600 Superdex 200 pg column (GE Healthcare) with 50 mM sodium phosphate buffer pH 7.4 and 100 mM NaCl. Proteins were concentrated using Amicon Ultra centrifugal filter devices (Merck Millipore). DTT was absent in storage buffers so that the activating disulfide bond would not be reduced and so that the PKGIα M438G mutant would be oxidized to disulfide dimer in the presence of air (confirmed by SDS-PAGE). Protein concentration was determined by Pierce BCA assay (ThermoFisher) and enzyme activity was confirmed using the Omnia kinase assay kit (ThermoFisher).
(§3) Male Wistar rats (9–10 weeks; body weight 300–330 g) were euthanized by intraperitoneal injection of sodium pentobarbitone (200 mg kg^−1) with heparin (500 USP units). […]

[3] = system: PKGIα (analogue-sensitive M438G), disulfide-activated; test: Chemical genetic phosphoproteomic screen, disulfide-activated PKGIα M438G versus unactivated control; format: biochemical, human PKGIα; substrates in rat heart homogenate; settings: for Log2 fold change in phosphorylation, Disulfide versus control: disulfide-activated PKGIα M438G vs basal, 1 h, 30 °C, pH 7.5, rat heart homogenate, label-free LC–MS/MS, * P<0.05 Dunnett: only phospholamban S16; for log2 fold change Disulfide vs Control: control = PKGIα C42S/M438G; for log2 fold changes: Group 2 (disulfide-activated) vs Group 3 (control)
Description: as §1, §2, §3

Compound	log2 fold change cGMP vs Control [2]	log2 fold change Disulfide vs Control [3]	other results
CC(=O)OC[C@H]1O[C@@H]([S-])[C@H](OC(C)=O)[C@@H](OC(C)=O)[C@@H]1OC(C)=O.CCP(CC)CC.[Au+] [auranofin]	–	–	PKGIα disulfide dimer upon treatment (PKGIα disulfide dimer): accumulation of PKGIα disulfide dimer
OO [hydrogen peroxide]	–	–	PLN threonine 17 phosphorylation (PLN threonine 17): will become phosphorylated; effect of pre-oxidation of PKGIα on its activation by cGMP [1]: slightly attenuated
CAP-Gly domain-containing linker protein 2: PKGIα substrate, phospho site S353	–	–	Log2 fold change in phosphorylation, cGMP versus control [2]: 2.05*; Log2 fold change in phosphorylation, Disulfide versus control ([3]; n=4): 0.98
Cardiac phospholamban: PKGIα substrate, phospho site S16 (MEKVQYLTRSAIRRA[pS]TIEMPQQARQNLQNLFINFCLILICLLLICIIVMLL; cysteine pairing not given here; UniProt P61016 1-52, looked up)	–	–	Log2 fold change in phosphorylation, cGMP versus control [2]: −0.81; Log2 fold change in phosphorylation, Disulfide versus control ([3]; n=4): 0.41*
Clip2 pS353	2.051	0.983	–
E3 ubiquitin-protein ligase TRIP12: PKGIα substrate, phospho site S1073	–	–	Log2 fold change in phosphorylation, cGMP versus control [2]: 1.63*; Log2 fold change in phosphorylation, Disulfide versus control ([3]; n=4): 0.66
Foxo1 pS270	0.9588	0.7421	–
Limd1 pS303	2.801	2.11	–
Map1a pS460	2.406	0.5914	–
Microtubule-associated protein 1A: PKGIα substrate, phospho site S460	–	–	Log2 fold change in phosphorylation, cGMP versus control [2]: 2.41*; Log2 fold change in phosphorylation, Disulfide versus control ([3]; n=4): 0.59
Mink1 pS997 (KG[pS]VVNVNPTNTR)	0.5982	0.583	–
Mrps31 pS191 (RVSFTQIISNMK; also: phosphoserine (pS191), site in peptide not given here)	0.6921	0.1676	–
Mthfd1 pT545 (KITIGQAPTEK; also: phosphothreonine (pT545), site in peptide not given here)	3.681	1.475	–
Mybbp1a pS1318 (ARLSLVSR; also: phosphoserine (pS1318), site in peptide not given here)	-0.9192	-0.09923	–
Mylk3 pS155 (KG[pS]LADGPEENKEQAEVAGVKPK)	3.16	1.131	–
Nucb1 pS368 (AQRL[pS]QETEALGR)	5.775	3.208	–
Nucb2 pS85 (SGRLSQELDLVSHK; also: phosphoserine (pS85), site in peptide not given here)	-1.746	-0.4443	–
Olr1571 pS170 (AISSSQGK; also: phosphoserine (pS170), site in peptide not given here)	-4.008	-1.218	–
Pcnp pS95 (KASAISIR; also: phosphoserine (pS95), site in peptide not given here)	-1.793	0.1824	–
Pde4a pS140 (RE[pS]FLYR)	1.223	1.1526	–

Compound	log2 fold change cGMP vs Control [2]	log2 fold change Disulfide vs Control [3]	other results
Pln pS16 (RA[pS]TIEMPQQAR; not fully specified (residue 7))	-0.8119	0.4097	–
Prkcdbp pS199 (KG[pS]EAAQPTPVKPPR)	1.54	1.3478	–
Protein SET: PKGIα substrate, phospho site S7	–	–	Log2 fold change in phosphorylation, cGMP versus control [2]: 3.80*; Log2 fold change in phosphorylation, Disulfide versus control ([3]; n=4): 1.76
Prrc2a pS457	0.5056	0.2134	–
RApSTIEMPQQAR [phosphopeptide from the cardiac protein phospholamban]	–	–	phosphopeptide abundance relative to control, PKGIα activated by Cys42 oxidation ([3]; PLN pSer16, P<0.05, n=4): significantly increased relative to control
Rnf123 pS690 (FLSTAAVSL[Met(O)]TPR; also: phosphoserine, site not given here)	3.971	-1.634	–
Ryr2 pS2798 (RISQTSQVSIDAAHGYSPR; also: phosphoserine (pS2798), site in peptide not given here)	–	–	log2 fold changes [2]: 1.758; log2 fold changes [3]: -0.1315
Sarnp pS138 (GLSSDTKP[Met(O)]VNLDK; also: phosphoserine, site not given here)	–	–	log2 fold changes [2]: 4.118; log2 fold changes [3]: 1.9607
Set pS7 (RQ[pS]AILPQPK)	3.804	1.764	–
Snx17 pS437 (LSSKLSAVSLR; also: phosphoserine pS437, several Ser, place not given here)	–	–	log2 fold changes [2]: 3.5; log2 fold changes [3]: 1.271
Speg pS2019	–	–	log2 fold changes [2]: 1.632; log2 fold changes [3]: 1.452
Speg pS2135	–	–	log2 fold changes [2]: 4.01; log2 fold changes [3]: 1.764
Speg pS2410	–	–	log2 fold changes [2]: -0.7401; log2 fold changes [3]: -0.1096
Stmn1 pS31 (SKESVPEFPLSPPK; also: phosphoserine pS31, several Ser, place not given here)	–	–	log2 fold changes [2]: 4.264; log2 fold changes [3]: 0.3093
Tnni3 pS151	–	–	log2 fold changes [2]: 2.921; log2 fold changes [3]: -0.2077
Tnni3 pS167 (AKE[pS]LDLR)	–	–	log2 fold changes [2]: 3.492; log2 fold changes [3]: 1.654
Trip12 pS1073	1.63	0.661	–
Trmt10c pT377 (RKH[pT]GYLEVPEHSQAAFR)	1.984	0.4487	–
Troponin I, cardiac muscle: PKGIα substrate, phospho site S167	–	–	Log2 fold change in phosphorylation, cGMP versus control [2]: 3.49*; Log2 fold change in phosphorylation, Disulfide versus control ([3]; n=4): 1.65
Wipf1 pS324 (NLSLTSPTPPLPSPGR; also: phosphoserine pS324, several Ser, place not given here)	–	–	log2 fold changes [2]: 2.215; log2 fold changes [3]: -0.2547
